Measurements as given in patent US20260116868A1 (Arcus Biosciences, Inc., priority 2023, published 2026).
Read-outs that look alike come from different tables or passages of the source.

What was measured:
Cbl-b = molecular target: T1, Cbl-b (Homo sapiens, UniProt Q13191); assay: Cbl-b probe displacement HTRF binding assay; details: 0.4 nM Cbl-b, 150 nM BODIPY probe
T1 construct: biotin (biotinylated protein)
Summary of the method: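 Binding IC50 from four-parameter fit of HTRF signal loss, normalised to DMSO (0%) and no-protein (100%) wells. Biotinylated Cbl-b 0.4 nM was preincubated 60 min with compound (20-point 1:2 dilution) before 15 min with 150 nM BODIPY probe; Tb-streptavidin detection.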

Jurkat cells = assay: IL-2 secretion assay in Jurkat cells activated with CD3/CD28 T Cell Activator; format: cell-based; details: Homo sapiens, 24 h, read-out: IL-2 Secretion (EC50)
Summary of the method: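 Jurkat cells in Opti-MEM were preincubated 1 h at 37° C with compound (final 10 μM to 300 pM, 16-point 1:2 dilution), then activated with human CD3/CD28 T Cell Activator for 24 h at 37° C. Supernatant IL-2 measured by AlphaLISA; EC50 from 4-parameter logistic fit.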

[1] = Jurkat cells, CD3/CD28 T Cell Activator, IL-2 AlphaLISA

T1 sequence (Q13191 whole entry, species assumed): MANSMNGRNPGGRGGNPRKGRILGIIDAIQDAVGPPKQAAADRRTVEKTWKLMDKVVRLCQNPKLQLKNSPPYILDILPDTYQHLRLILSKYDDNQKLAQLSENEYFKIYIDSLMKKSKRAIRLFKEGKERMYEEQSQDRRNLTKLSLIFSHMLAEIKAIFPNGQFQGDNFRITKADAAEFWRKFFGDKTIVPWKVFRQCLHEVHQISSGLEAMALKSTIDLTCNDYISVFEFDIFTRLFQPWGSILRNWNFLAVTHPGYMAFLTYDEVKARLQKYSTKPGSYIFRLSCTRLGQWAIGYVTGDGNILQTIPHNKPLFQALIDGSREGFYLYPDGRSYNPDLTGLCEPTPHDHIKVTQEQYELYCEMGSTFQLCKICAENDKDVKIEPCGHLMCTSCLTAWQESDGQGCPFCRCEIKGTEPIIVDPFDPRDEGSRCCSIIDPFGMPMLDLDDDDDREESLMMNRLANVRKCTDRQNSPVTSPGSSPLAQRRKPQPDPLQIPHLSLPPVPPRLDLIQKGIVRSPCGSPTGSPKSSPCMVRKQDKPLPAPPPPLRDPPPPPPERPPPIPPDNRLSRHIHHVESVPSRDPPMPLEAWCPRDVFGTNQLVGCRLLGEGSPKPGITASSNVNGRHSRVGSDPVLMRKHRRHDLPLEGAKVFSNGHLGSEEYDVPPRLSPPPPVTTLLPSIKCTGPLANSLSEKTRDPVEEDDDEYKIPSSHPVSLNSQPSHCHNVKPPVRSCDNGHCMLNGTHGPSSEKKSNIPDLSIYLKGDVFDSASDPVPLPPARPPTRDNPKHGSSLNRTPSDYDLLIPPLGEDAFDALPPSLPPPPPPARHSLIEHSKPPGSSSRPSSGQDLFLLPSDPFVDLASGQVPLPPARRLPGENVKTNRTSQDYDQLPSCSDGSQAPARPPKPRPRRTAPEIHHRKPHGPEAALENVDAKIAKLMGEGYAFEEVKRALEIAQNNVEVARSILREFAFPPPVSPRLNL

| IC50 (Cbl-b) [nM] | EC50 (Jurkat cells; [1]) [nM] | Compound | EC50 (Jurkat cells; Jurkat) [nM] |
| --- | --- | --- | --- |
| < 100 | 100 to 1000 | C[C@H]1CCCN(Cc2cc(C(=O)Nc3cc(-c4ccc(F)cc4C(=O)N4CC(F)C4)cc(C4CC4)n3)c(=O)n(C3CC3)c2)C1 [Example 65, N-(6-cyclopropyl-4-{4-fluoro-2-[(3-fluoro-1-azetidinyl)carbonyl]phenyl}-2-pyridyl)-5-{[(S)-3-methyl-1-piperidyl]methyl}-1-cyclopropyl-2-oxo-1,2-dihydronicotinamide] | – |
| 100 to 1000 | 1000 to 5000 | C[C@H]1CCCN(Cc2cc(C(=O)Nc3cc(C#N)cc(-c4ccc(F)cc4C(=O)N4CC(F)C4)c3)c(=O)n(C3CC3)c2)C1 [Example 66, N-{5-cyano-4′-fluoro-2′-[(3-fluoro-1-azetidinyl)carbonyl]-3-biphenylyl}-5-{[(S)-3-methyl-1-piperidyl]methyl}-1-cyclopropyl-2-oxo-1,2-dihydronicotinamide] | – |
| < 100 | 100 to 1000 | COCCNCc1cc(C(=O)Nc2cc(-c3ccc(F)cc3C(=O)N3CC(F)(F)C3)cc(C3CC3)c2)c(=O)n(C2CC2)c1 [Example 69, N-{5-cyclopropyl-2′-[(3,3-difluoro-1-azetidinyl)carbonyl]-4′-fluoro-3-biphenylyl}-1-cyclopropyl-5-[(2-methoxyethylamino)methyl]-2-oxo-1,2-dihydronicotinamide] | – |
| < 100 | 100 to 1000 | COCCNCc1cc(C(=O)Nc2cc(-c3ccc(F)cc3-n3nccc3C)cc(C3CC3)n2)c(=O)n(C2CC2)c1 [Example 70, 1-Cyclopropyl-N-[6-cyclopropyl-4-[4-fluoro-2-(5-methylpyrazol-1-yl)phenyl]pyridin-2-yl]-5-[(2-methoxyethylamino)methyl]-2-oxopyridine-3-carboxamide] | – |
| < 100 | < 100 | COCCNCc1cc(C(=O)Nc2cc(-c3ccc(F)cc3-n3nncc3C)cc(C3CC3)n2)c(=O)n(C2CC2)c1 [Example 71, N-{6-cyclopropyl-4-[4-fluoro-2-(5-methyl-1H-1,2,3-triazol-1-yl)phenyl]-2-pyridyl}-1-cyclopropyl-5-[(2-methoxyethylamino)methyl]-2-oxo-1,2-dihydronicotinamide] | – |
| < 100 | 100 to 1000 | COCCNCc1cc(C(=O)Nc2cc(-c3ccc(F)cc3-n3nncc3CF)cc(C3CC3)n2)c(=O)n(C2CC2)c1 [Example 72, 1-Cyclopropyl-N-[6-cyclopropyl-4-[4-fluoro-2-[5-(fluoromethyl)triazol-1-yl]phenyl]pyridin-2-yl]-5-[(2-methoxyethylamino)methyl]-2-oxopyridine-3-carboxamide] | – |
| 100 to 1000 | 1000 to 5000 | COCCNCc1cc(C(=O)Nc2cc(-c3ccc(F)cc3-n3cc(CF)nn3)cc(C3CC3)n2)c(=O)n(C2CC2)c1 [Example 73, 1-Cyclopropyl-N-[6-cyclopropyl-4-[4-fluoro-2-[4-(fluoromethyl)triazol-1-yl]phenyl]pyridin-2-yl]-5-[(2-methoxyethylamino)methyl]-2-oxopyridine-3-carboxamide] | – |
| 100 to 1000 | 1000 to 5000 | Cc1ccnnc1-c1cc(F)ccc1-c1cc(NC(=O)c2cc(CN3CCO[C@H](C)C3)cn(C3CC3)c2=O)nc(C2CC2)c1 [Example 74, 1-cyclopropyl-N-[6-cyclopropyl-4-[4-fluoro-2-(4-methylpyridazin-3-yl)phenyl]pyridin-2-yl]-5-[[(2R)-2-methylmorpholin-4-yl]methyl]-2-oxopyridine-3-carboxamide] | – |
| 100 to 1000 | 1000 to 5000 | Cc1cccnc1-c1cc(C#N)ccc1-c1cc(NC(=O)c2cc(CN3CCO[C@H](C)C3)cn(C3CC3)c2=O)nc(C2CC2)c1 [Example 75, N-[4-[4-cyano-2-(3-methylpyridin-2-yl)phenyl]-6-cyclopropylpyridin-2-yl]-1-cyclopropyl-5-[[(2R)-2-methylmorpholin-4-yl]methyl]-2-oxopyridine-3-carboxamide] | – |
| 100 to 1000 | 100 to 1000 | C[C@H]1CCCN(Cc2cc(C(=O)Nc3cccc(C4(c5nncn5C)CC(F)(F)C4)c3)c(=O)n(C3CC3)c2)C1 [Example 79, 1-cyclopropyl-N-[3-[3,3-difluoro-1-(4-methyl-1,2,4-triazol-3-yl)cyclobutyl]phenyl]-5-[[(3S)-3-methylpiperidin-1-yl]methyl]-2-oxopyridine-3-carboxamide] | – |
| 100 to 1000 | 100 to 1000 | CO[C@H]1C[C@@](c2cccc(NC(=O)c3cc(CN4CCC[C@H](C)C4)cn(C4CC4)c3=O)c2)(c2nncn2C)C1 [Example 80, 1-cyclopropyl-N-[3-[3-methoxy-1-(4-methyl-1,2,4-triazol-3-yl)cyclobutyl]phenyl]-5-[[(3S)-3-methylpiperidin-1-yl]methyl]-2-oxopyridine-3-carboxamide] | – |
| 100 to 1000 | 100 to 1000 | CO[C@H]1C[C@](c2cccc(NC(=O)c3cc(CN4CCC[C@H](C)C4)cn(C4CC4)c3=O)c2)(c2nncn2C)C1 [Example 81, 1-cyclopropyl-N-[3-[3-methoxy-1-(4-methyl-1,2,4-triazol-3-yl)cyclobutyl]phenyl]-5-[[(3S)-3-methylpiperidin-1-yl]methyl]-2-oxopyridine-3-carboxamide] | – |
| < 100 | < 100 | CO[C@@H](C)CNCc1cc(C(=O)Nc2cc(-c3ccc(C#N)cc3C(=O)N3CC(F)(F)C3)cc(C3CC3)n2)c(=O)n(C2CC2)c1 [Example 95, N-(4-{4-cyano-2-[(3,3-difluoro-1-azetidinyl)carbonyl]phenyl}-6-cyclopropyl-2-pyridyl)-5-{[(S)-2-methoxypropylamino]methyl}-1-cyclopropyl-2-oxo-1,2-dihydronicotinamide] | – |
| < 100 | < 100 | CO[C@@H](C)CNCc1cc(C(=O)Nc2cc(-c3c(F)cc(Cl)cc3C(=O)N3CC(F)(F)C3)cc(C3CC3)n2)c(=O)n(C2CC2)c1 [Example 102, N-[4-[4-chloro-2-(3,3-difluoroazetidine-1-carbonyl)-6-fluorophenyl]-6-cyclopropylpyridin-2-yl]-1-cyclopropyl-5-[[[(2S)-2-methoxypropyl]amino]methyl]-2-oxopyridine-3-carboxamide] | – |
| < 100 | < 100 | CO[C@@H](C)CNCc1cc(C(=O)Nc2cc(-c3ccc(Cl)cc3C(=O)N3CC(F)(F)C3)cc(C3CC3)n2)c(=O)n(C)c1 [Example 105, N-[4-[4-chloro-2-(3,3-difluoroazetidine-1-carbonyl)phenyl]-6-cyclopropylpyridin-2-yl]-5-[[[(2S)-2-methoxypropyl]amino]methyl]-1-methyl-2-oxopyridine-3-carboxamide] | – |
| < 100 | < 100 | CC(C)CNCc1cc(C(=O)Nc2cc(-c3ccc(Cl)cc3C(=O)N3CC(F)(F)C3)cc(C3CC3)n2)c(=O)n(C)c1 [Example 106, N-[4-[4-chloro-2-(3,3-difluoroazetidine-1-carbonyl)phenyl]-6-cyclopropylpyridin-2-yl]-1-methyl-5-[(2-methylpropylamino)methyl]-2-oxopyridine-3-carboxamide] | – |
| < 100 | < 100 | Cn1cc(CNC[C@@H]2CCCO2)cc(C(=O)Nc2cc(-c3ccc(Cl)cc3C(=O)N3CC(F)(F)C3)cc(C3CC3)n2)c1=O [Example 107, N-[4-[4-chloro-2-(3,3-difluoroazetidine-1-carbonyl)phenyl]-6-cyclopropylpyridin-2-yl]-1-methyl-2-oxo-5-[[[(2S)-oxolan-2-yl]methylamino]methyl]pyridine-3-carboxamide] | – |
| < 100 | < 100 | CO[C@H]1CCC[C@@H]1NCc1cc(C(=O)Nc2cc(-c3ccc(C#N)cc3C(=O)N3CC(F)(F)C3)cc(C3CC3)n2)c(=O)n(CC(F)(F)F)c1 [Example 154, N-[4-[4-cyano-2-(3,3-difluoroazetidine-1-carbonyl)phenyl]-6-cyclopropylpyridin-2-yl]-5-[[[(1S,2S)-2-methoxycyclopentyl]amino]methyl]-2-oxo-1-(2,2,2-trifluoroethyl)pyridine-3-carboxamide] | – |

| Compound | IC50 (Cbl-b) [nM] | EC50 (Jurkat cells; [1]) [nM] | EC50 (Jurkat cells; Jurkat) [nM] |
| --- | --- | --- | --- |
| CC(C)CNCc1cc(C(=O)Nc2cc(-c3c(F)cc(Cl)cc3C(=O)N3CC(F)(F)C3)cc(C3CC3)n2)c(=O)n(C2CC2)c1 [Example 144, N-(4-{4-chloro-2-[(3,3-difluoro-1-azetidinyl)carbonyl]-6-fluorophenyl}-6-cyclopropyl-2-pyridyl)-1-cyclopropyl-5-[(isobutylamino)methyl]-2-oxo-1,2-dihydronicotinamide] | < 100 | – | < 100 |
